Measurements: ChEMBL document CHEMBL1148468, “Design and synthesis of novel cyanoguanidine ATP-sensitive potassium channel openers for the treatment of overactive bladder” (Bioorg Med Chem Lett, 2004)

Assays:
[1] = molecular target: Sulfonylurea receptor 2, Kir6.2 (Homo sapiens, UniProt O60706+Q14654); assay: (§1) In vitro ATP-sensitive potassium channel (KATP) activity in cells expressing human KATP channels Kir6.2 and sulfonylurea receptor 2B; format: functional
[2] = molecular target: Sulfonylurea receptors; K-ATP channels (Sus scrofa); assay: In vitro functional potassium channel opening activity in tissue strips obtained from Landrace pig bladders(LPD)
[3] = molecular target: Sulfonylurea receptor 2, Kir6.2 (Homo sapiens) (UniProt Q14654+O60706); assay: as §1; format: functional; conditions: filed as antagonist

Sequence of Sulfonylurea receptor 2, Kir6.2 (Q14654 whole entry): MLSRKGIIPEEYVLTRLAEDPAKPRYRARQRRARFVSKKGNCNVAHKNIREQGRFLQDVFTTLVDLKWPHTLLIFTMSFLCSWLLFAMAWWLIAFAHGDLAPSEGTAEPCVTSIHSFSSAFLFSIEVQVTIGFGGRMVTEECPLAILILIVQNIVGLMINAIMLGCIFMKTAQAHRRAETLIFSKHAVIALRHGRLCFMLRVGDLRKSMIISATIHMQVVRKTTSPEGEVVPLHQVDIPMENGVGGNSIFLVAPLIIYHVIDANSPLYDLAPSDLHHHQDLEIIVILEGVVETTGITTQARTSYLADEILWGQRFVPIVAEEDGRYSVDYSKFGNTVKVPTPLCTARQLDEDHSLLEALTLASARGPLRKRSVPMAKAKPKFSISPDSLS
Sequence of Sulfonylurea receptor 2, Kir6.2 (O60706 whole entry): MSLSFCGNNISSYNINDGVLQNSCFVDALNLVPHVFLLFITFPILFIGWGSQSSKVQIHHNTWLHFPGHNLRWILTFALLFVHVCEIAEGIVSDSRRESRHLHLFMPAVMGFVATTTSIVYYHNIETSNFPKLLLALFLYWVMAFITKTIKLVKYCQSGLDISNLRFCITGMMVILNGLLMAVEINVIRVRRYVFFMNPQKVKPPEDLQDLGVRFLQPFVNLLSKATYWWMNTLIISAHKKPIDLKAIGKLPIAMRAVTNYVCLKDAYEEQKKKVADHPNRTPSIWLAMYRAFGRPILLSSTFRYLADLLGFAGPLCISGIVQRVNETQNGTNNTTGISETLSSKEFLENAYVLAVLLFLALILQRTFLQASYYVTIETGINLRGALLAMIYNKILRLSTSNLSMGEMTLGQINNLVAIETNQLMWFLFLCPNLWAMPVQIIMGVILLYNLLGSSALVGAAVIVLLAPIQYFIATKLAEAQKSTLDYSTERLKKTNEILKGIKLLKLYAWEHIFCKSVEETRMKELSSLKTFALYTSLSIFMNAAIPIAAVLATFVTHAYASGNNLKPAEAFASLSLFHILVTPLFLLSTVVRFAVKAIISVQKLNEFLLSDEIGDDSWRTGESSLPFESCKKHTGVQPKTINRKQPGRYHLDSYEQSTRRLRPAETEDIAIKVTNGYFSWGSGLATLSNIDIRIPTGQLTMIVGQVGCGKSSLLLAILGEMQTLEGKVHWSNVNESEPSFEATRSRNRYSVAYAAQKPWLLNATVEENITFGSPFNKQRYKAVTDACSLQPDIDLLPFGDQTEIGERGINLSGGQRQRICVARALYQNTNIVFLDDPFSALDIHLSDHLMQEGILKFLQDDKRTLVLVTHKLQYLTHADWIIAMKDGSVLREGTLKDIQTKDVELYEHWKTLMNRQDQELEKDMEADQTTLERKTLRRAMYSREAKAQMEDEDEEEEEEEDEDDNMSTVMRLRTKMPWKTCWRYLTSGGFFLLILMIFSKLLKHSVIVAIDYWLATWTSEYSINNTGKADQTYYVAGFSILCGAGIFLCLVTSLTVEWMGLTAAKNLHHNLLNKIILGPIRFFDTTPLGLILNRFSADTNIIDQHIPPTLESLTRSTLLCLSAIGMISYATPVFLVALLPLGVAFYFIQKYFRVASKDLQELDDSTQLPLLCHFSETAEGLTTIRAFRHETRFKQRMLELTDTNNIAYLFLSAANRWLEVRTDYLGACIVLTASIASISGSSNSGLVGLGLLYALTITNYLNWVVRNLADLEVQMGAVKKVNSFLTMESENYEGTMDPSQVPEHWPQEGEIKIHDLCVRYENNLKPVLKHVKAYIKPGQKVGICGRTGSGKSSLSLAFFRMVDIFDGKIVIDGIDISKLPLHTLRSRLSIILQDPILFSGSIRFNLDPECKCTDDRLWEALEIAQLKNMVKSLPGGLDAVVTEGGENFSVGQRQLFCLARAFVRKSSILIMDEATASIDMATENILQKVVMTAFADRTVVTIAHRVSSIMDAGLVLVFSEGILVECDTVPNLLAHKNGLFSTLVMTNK

With `CC(C)(C)C(NC(=O)c1ccc(Cl)cc1)N/C(S)=N/c1cccnc1` (stereo not drawn) the EC50 [1] was 2.51 µM and the EC50 [2] was 7.94 µM.
Compound `N#CN/C(=N\C(NC(=O)c1ccc(Cl)cc1)C(Cl)(Cl)Cl)Nc1cccnc1` (stereo not drawn) has an EC50 [1] of 1 µM and an EC50 [2] of 2 µM.
`CC(C)(C)C(NC(=O)c1ccc(Cl)cc1)N/C(=N/c1cccnc1)NS(N)(=O)=O` (stereo not drawn) was tested, and the EC50 [1] was greater than 100 µM.
For `CC(C)(C)C(NC(=O)c1ccc(Cl)cc1)N/C(=C/[N+](=O)[O-])Nc1cccnc1` (stereo not drawn), the EC50 [1] was greater than 100 µM.
`CC(Cl)(Cl)C(NC(=O)c1cccc(F)c1)N/C(=N/c1cccnc1)NC#N` (stereo not drawn) showed an EC50 [1] of 3.98 µM.
In the case of `CN(C)S(=O)(=O)N/C(=N\C(NC(=O)c1ccc(Cl)cc1)C(C)(C)C)Nc1cccnc1` (stereo not drawn), the EC50 [1] is reported as greater than 100 µM.
Work on `O=C(NC(NC(=S)Nc1cccnc1)C(Cl)(Cl)Cl)c1ccc(Cl)cc1` (stereo not drawn) yielded an EC50 [1] of 0.794 µM and an EC50 [2] of 2 µM.
Work on `C=CCC(C)(C)C(NC(=O)c1ccc(Cl)cc1)NC(=NC#N)Nc1cccnc1` (stereo not drawn) yielded an EC50 [1] of 20 µM.
`CCCCC(C)(C)C(NC(=O)c1ccc(Cl)cc1)N/C(=N/c1cccnc1)NC#N` (stereo not drawn) was tested, and the EC50 [1] was greater than 100 µM.
`CC(Cl)(Cl)C(NC(=O)c1ccc(Cl)cc1)NC(=NC#N)Nc1cccnc1` (stereo not drawn) gave an EC50 [1] of 2 µM and an EC50 [2] of 2.51 µM.
Work on `CC(Cl)(Cl)[C@H](NC(=O)c1ccc(Cl)cc1)N/C(=N/c1cccnc1)NC#N` yielded an EC50 [1] of 10 µM and an EC50 [2] of 20 µM.
`CC(C)(C)C(NC(=O)c1ccc(Cl)cc1)NC(Nc1cccnc1)=C(C#N)C#N` (stereo not drawn) was tested, and the “Log EC50” value [3] was “Antagonist”.
`CC(C)(C)C(NC(=O)c1ccc(Cl)cc1)N/C(=N/c1cccnc1)NC#N` (stereo not drawn) was tested, and the EC50 [1] was 6.31 µM and the EC50 [2] was 20 µM.
For `CC(C)(C)C(NC(=O)c1ccc(Cl)cc1)N/C(=N/c1cccnc1)N[N+](=O)[O-]` (stereo not drawn), the EC50 [1] was 31.6 µM and the EC50 [2] was 7.94 µM.
`CCC(CC)(CCC#N)C(NC(=O)c1ccc(Cl)cc1)NC(=NC#N)Nc1cccnc1` (stereo not drawn) gave an EC50 [1] of 5.01 µM and an EC50 [2] of 5.01 µM.
`CC(Cl)(Cl)[C@@H](NC(=O)c1ccc(Cl)cc1)N/C(=N/C#N)Nc1cccnc1` gave an EC50 [1] of 0.316 µM and an EC50 [2] of 5.01 µM.
For `CC(Cl)(Cl)C(NC(=O)c1ccc(Br)cc1)N/C(=N/c1cccnc1)NC#N` (stereo not drawn), the EC50 [1] was 10 µM.
`Cc1cccc(C(=O)NC(/N=C(\NC#N)Nc2cccnc2)C(C)(Cl)Cl)c1` (stereo not drawn) gave an EC50 [1] of 5.01 µM.
For `Cc1ccc(C(=O)NC(/N=C(\NC#N)Nc2cccnc2)C(C)(Cl)Cl)cc1` (stereo not drawn), the EC50 [1] was 2.51 µM.
`CC(Cl)(Cl)C(NC(=O)c1cc(F)cc(F)c1)N/C(=N/c1cccnc1)NC#N` (stereo not drawn) gave an EC50 [1] of 3.98 µM and an EC50 [2] of 5.01 µM.
In the case of `CC(Cl)(Cl)C(NC(=O)c1cccc(Cl)c1)N/C(=N/c1cccnc1)NC#N` (stereo not drawn), the EC50 [1] is reported as 3.16 µM and the EC50 [2] is reported as 1.58 µM.
`C=CC(C)(C)CC(NC(=O)c1ccc(Cl)cc1)N/C(=N/c1cccnc1)NC#N` (stereo not drawn) was tested, and the EC50 [1] was 10 µM.
